Data: US9045482B2, “Pyrido[4,3-B]indoles and methods of use” (Medivation Technologies, Inc., priority 2009, dated 2015)

Tests used:
[1] = biological target: T1, human recombinant adrenergic α1D receptor (Homo sapiens, UniProt P25100); assay: Adrenergic α1D radioligand binding ([3H]Prozosin)
T1 construct: expressed in transfected cells; host or cells: human embryonic kidney (HEK-293) cells
T1 sequence (P25100 1-572): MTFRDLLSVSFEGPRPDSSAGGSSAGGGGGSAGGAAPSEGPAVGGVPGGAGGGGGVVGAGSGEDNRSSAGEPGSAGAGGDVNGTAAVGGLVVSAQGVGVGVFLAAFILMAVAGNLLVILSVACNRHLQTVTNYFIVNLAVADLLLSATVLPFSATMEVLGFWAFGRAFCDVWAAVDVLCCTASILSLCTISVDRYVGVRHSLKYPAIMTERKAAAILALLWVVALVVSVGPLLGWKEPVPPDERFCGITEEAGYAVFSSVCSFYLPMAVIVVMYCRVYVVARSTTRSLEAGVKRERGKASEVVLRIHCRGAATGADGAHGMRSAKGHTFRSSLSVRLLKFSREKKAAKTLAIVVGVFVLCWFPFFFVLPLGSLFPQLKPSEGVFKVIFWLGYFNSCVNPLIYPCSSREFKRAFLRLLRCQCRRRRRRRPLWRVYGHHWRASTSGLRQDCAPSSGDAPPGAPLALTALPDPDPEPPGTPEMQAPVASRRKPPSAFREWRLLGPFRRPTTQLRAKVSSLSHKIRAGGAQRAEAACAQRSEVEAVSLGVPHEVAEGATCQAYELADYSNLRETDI
Protocol: Compounds of invention were incubated with 0.6 nM [^3H]Prozosin for 60 min at 25° C. Non-specific binding was estimated in the presence of 10 μM phentolamine. Receptor proteins were filtered and washed, the filters were then counted to determine [^3H]Prozosin specifically bound. Compounds were screened at 1 μM or lower, using 1% DMSO as vehicle. Compounds of the invention were tested in this biochemical assay. Biochemical assay results for representative compounds were presented as the percent inhibition of specific binding in Table 3.

[2] = biological target: T2, human recombinant adrenergic α2A receptor (Homo sapiens, UniProt P08913); assay: Adrenergic α2A radioligand binding ([3H]MK-912)
T2 construct: expressed in transfected cells; host or cells: insect Sf9 cells
T2 sequence (P08913 1-465): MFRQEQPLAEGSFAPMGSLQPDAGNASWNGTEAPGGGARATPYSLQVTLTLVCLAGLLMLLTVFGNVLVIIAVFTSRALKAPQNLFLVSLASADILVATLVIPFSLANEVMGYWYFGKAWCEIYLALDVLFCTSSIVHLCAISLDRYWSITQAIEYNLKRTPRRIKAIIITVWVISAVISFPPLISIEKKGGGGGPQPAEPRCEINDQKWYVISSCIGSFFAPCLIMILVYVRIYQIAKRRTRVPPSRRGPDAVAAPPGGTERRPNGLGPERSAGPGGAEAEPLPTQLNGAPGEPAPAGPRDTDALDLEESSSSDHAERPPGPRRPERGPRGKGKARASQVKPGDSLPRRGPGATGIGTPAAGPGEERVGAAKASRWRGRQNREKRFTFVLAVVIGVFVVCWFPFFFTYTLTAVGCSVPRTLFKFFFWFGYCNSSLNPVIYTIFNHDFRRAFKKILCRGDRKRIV
Protocol: To evaluate in radioligand binding assays the activity of compounds of the invention, human recombinant adrenergic α2A receptor expressed in insect Sf9 cells [Uhlen, S. et al., J. Pharmacol. Exp. Ther. (1994), 271:1558] in a modified Tris-HCl buffer (50 mM Tris-HCl, pH 7.4, 12.5 mM MgCl2, 2 mM EDTA) was used. Compounds of invention were incubated with 1 nM [^3H]MK-912 for 60 min at 25° C. MK912 was (2S-trans)-1,3,4,5′,6,6′,7,12b-octahydro-1′,3′-dimethyl-spiro[2H-benzofuro[2,3-a]quinolizine-2,4′(1′H)-pyrimidin]-2′(3′H)-one hydrochloride Non-specific binding was estimated in the presence of 10 μM WB-4101 (2-(2,6-dimethoxyphenoxyethyl)aminomethyl-1,4-benzodioxane hydrochloride). Receptor proteins were filtered and washed, the filters were then counted to determine [^3H]MK-912 specifically bound. Compounds were screened at 1 μM or lower, using 1% DMSO as vehicle. Compounds of the invention were tested in this biochemical assay. Biochemical assay results for representative compounds were presented as the percent inhibition of specific binding in Table 3.

[3] = biological target: T3, rat adrenergic α1B receptor (Rattus norvegicus, UniProt P15823); assay: Adrenergic α1B radioligand binding ([3H]Prozosin); parameters: species or system Wistar Rat; settings: 0.1 μM ligand conc.
T3 construct: rat adrenergic α1B receptor obtained from Wistar Rat liver; from tissue; host or cells: Wistar Rat liver
T3 sequence (P15823 1-515): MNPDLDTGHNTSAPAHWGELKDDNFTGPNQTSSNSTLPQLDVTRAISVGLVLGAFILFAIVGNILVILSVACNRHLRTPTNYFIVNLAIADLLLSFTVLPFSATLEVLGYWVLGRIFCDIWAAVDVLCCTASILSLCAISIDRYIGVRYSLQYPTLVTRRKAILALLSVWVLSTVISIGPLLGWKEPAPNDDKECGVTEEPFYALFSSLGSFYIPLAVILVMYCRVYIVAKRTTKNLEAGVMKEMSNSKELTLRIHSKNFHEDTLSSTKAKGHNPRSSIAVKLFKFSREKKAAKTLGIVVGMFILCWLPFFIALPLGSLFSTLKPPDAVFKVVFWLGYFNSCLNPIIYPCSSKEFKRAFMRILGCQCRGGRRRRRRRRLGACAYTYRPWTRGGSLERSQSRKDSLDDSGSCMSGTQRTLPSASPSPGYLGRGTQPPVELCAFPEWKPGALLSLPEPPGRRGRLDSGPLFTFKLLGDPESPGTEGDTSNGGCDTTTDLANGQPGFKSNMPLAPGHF
Protocol: To evaluate in radioligand binding assays the activity of compounds of the invention, rat adrenergic α1B receptor obtained from Wistar Rat liver [Garcia-S'ainz, J. A. et al., Biochem. Biophys. Res. Commun. (1992), 186:760; Michel, A. D. et al., Br. J. Pharmacol. (1989), 98:883] in a modified Tris-HCl buffer (50 mM Tris-HCl buffer, pH 7.4, 0.5 mM EDTA) was used. Compounds of the invention were incubated with 0.25 nM [^3H]Prozosin for 60 min at 25° C. Non-specific binding was estimated in the presence of 10 μM phentolamine. Receptor proteins were filtered and washed, the filters were then counted to determine [^3H]Prozosin specifically bound. Compounds were screened at 1 μM or lower, using 1% DMSO as vehicle. Compounds of the invention were tested in this biochemical assay. Biochemical assay results for representative compounds were presented as the percent inhibition of specific binding in Table 3.

| Structure (SMILES) | Percent Inhibition of ligand binding Adrenergic α1D ([1]; 1 μM ligand conc.) | Percent Inhibition of ligand binding Adrenergic α2A ([2]; 1 μM ligand conc.) | Percent Inhibition of ligand binding Adrenergic α1D ([1]; 0.1 μM ligand conc.) | Percent Inhibition of ligand binding Adrenergic α1B [3] | Percent Inhibition of ligand binding Adrenergic α2A ([2]; 0.1 μM ligand conc.) |
| --- | --- | --- | --- | --- | --- |
| Fc1ccc(CCn2c3c(c4cc(Cl)ccc42)C2CCCN2CC3)cc1 (stereo not shown) [Compound 1, 7-(4-fluorophenethyl)-10-chloro-2,3,5,6,7,11c-hexahydro-1H-indolizino[7,8-b]indole] | 15% | 22% |  |  |  |
| Fc1ccc(CCn2c3c(c4cc(Cl)ccc42)CN2CCCC2C3)cc1 (stereo not shown) [Compound 2, 10-(4-fluorophenethyl)-7-chloro-2,3,5,10,11,11a-hexahydro-1H-indolizino[7,6-b]indole] | 23% | 20% |  |  |  |
| O=C(Cn1c2c(c3cccnc31)CN1CCCC1C2)N1CCCCC1 (stereo not shown) [Compound 37, 1-(piperidin-1-yl)-2-(8,9,9a,10-tetrahydro-5H-pyrido[3′,2′:4,5]pyrrolo[3,2-f]indolizin-11(7H)-yl)ethanone] |  |  | 6% | 9% | 12% |
| O=C(Cn1c2c(c3cccnc31)C1CCCN1CC2)N1CCCCC1 (stereo not shown) [Compound 38, 1-(piperidin-1-yl)-2-(2,3,5,6-tetrahydro-1H-pyrido[3′,2′:4,5]pyrrolo[2,3-g]indolizin-7(11cH)-yl)ethanone] |  |  | 4% | 8% | 4% |
